Values of other authors as cited in patent US20180050107A1, “NEUROSTEROID COMPOSITIONS AND METHODS OF USE THEREOF” (Janssen Pharmaceutica NV, priority 2016, published 2018).
Where two headings read alike, the source gives them in different places. Where a SMILES comes first, the peptide text is derived from it.

Legend:
TrkB receptors = biological target: T1, TrkB receptors (Mus musculus, UniProt P15209); details: mouse hippocampus
T1 construct: its downstream PI3K/Akt and MAPK receptors in the mouse hippocampus; host or cells: mouse hippocampus

[1] = ICU patients
[2] = biological target: T2, rat cerebellar GABA delta subunits (Rattus norvegicus, UniProt P18506)
T2 construct: rat cerebellar GABA delta subunits; host or cells: rat cerebellum

[3] = not given; remark: listed apart in the source
[4] = in vivo
[5] = not given; remark: listed apart in the source
[6] = gangliosides added to conventional liposomes
[7] = in vivo; remark: listed apart in the source
[8] = tested on: MDA-MB-231 breast cancer cells; details: 0.1 μM
MMP-9 = details: 0.1 μM
β2-AR = β2-AR (Homo sapiens, UniProt P07550); details: 0.1 μM
GABA(A) delta [9] = biological target: T3, GABA(A) delta (Homo sapiens, UniProt O14764); details: 10 uMol/L, in vitro
T3 sequence (O14764 25-452): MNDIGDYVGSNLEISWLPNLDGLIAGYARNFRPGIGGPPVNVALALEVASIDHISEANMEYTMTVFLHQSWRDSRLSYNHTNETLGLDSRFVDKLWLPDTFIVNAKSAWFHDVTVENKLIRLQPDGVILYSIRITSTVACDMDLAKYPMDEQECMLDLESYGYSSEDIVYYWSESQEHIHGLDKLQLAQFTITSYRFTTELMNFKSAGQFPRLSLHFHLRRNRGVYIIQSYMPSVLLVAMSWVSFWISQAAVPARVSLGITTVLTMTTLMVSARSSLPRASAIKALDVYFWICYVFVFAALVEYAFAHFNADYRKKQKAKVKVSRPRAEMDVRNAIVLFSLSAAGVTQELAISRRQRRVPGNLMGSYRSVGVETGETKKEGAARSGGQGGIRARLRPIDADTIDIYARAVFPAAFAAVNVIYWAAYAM

neurons = details: read-out: EC50 for suppression of apoptosis in neurons
lung cancer patients = details: combination with EGFR-TKI chemotherapy
GABA(A) delta [10] = biological target: T3, GABA(A) delta; details: 1 μMol/L
[11] = in vivo; remark: listed apart in the source
[12] = oral administration, healthy volunteers
GABA(A) delta [13] = biological target: T3, GABA(A) delta; details: 100 uM
[14] = in vivo; remark: listed apart in the source
[15] = in vivo; remark: listed apart in the source
[16] = not given; remark: listed apart in the source
PPAR-gamma receptors = biological target: T4, PPAR-gamma receptors (Homo sapiens, UniProt P37231); details: read-out: EC for activation of PPAR-gamma receptors
T4 sequence (P37231 1-505): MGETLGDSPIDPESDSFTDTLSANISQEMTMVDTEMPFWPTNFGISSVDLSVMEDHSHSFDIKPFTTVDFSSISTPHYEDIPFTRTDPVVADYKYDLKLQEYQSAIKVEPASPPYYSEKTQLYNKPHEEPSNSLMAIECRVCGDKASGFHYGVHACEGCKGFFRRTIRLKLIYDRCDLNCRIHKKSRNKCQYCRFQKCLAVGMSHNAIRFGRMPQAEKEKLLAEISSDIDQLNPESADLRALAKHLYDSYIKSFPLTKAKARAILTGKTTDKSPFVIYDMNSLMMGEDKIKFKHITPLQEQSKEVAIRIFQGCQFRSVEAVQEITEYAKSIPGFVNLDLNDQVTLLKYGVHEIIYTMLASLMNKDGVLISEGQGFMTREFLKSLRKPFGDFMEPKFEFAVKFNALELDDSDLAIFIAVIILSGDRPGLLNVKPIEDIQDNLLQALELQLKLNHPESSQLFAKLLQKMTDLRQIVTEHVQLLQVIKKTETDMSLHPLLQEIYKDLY

T2 sequence (P18506 17-449 limits assumed): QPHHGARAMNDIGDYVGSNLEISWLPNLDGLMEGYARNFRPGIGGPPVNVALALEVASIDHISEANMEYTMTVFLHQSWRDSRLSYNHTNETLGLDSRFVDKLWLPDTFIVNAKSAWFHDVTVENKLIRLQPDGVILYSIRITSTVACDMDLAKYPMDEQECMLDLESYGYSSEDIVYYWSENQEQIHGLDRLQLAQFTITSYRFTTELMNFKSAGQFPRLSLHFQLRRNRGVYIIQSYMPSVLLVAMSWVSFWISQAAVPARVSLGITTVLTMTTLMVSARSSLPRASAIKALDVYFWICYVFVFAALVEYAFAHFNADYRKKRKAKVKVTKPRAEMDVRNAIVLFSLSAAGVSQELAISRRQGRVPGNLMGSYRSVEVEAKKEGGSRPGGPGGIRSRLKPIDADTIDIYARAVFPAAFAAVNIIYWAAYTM
T2 sequence (P30191 20-453 partner): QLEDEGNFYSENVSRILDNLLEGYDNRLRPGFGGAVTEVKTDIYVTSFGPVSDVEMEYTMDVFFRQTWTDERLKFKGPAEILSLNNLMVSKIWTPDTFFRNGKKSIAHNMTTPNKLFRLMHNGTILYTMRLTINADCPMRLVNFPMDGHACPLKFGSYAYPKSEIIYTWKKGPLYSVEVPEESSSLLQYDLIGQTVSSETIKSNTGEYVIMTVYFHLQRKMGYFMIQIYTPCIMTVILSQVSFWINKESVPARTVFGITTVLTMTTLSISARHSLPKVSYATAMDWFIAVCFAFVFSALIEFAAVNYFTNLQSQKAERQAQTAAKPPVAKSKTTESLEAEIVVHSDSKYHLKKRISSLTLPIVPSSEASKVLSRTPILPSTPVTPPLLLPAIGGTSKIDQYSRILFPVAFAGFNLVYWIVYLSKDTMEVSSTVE
T1 sequence (P15209 32-821): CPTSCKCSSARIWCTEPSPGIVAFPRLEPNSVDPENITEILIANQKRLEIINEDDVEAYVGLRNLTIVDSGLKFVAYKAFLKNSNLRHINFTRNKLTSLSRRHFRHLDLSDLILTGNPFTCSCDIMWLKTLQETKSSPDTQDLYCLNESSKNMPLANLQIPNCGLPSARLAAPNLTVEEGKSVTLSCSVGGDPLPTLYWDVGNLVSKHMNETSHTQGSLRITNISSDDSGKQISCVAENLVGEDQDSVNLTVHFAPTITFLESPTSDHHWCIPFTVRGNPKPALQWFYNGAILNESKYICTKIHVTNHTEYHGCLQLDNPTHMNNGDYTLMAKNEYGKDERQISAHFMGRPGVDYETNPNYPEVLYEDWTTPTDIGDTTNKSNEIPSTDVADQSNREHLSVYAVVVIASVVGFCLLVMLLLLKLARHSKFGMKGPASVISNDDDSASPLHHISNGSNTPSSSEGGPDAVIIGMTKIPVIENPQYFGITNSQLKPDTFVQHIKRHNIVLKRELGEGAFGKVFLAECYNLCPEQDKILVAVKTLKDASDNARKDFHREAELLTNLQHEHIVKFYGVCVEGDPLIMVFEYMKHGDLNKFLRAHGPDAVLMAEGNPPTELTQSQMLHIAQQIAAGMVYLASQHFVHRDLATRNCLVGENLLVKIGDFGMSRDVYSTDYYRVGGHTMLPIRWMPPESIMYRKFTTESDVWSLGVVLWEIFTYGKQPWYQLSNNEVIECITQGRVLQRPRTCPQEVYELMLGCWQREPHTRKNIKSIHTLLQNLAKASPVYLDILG
β2-AR, sequence (P07550 whole entry): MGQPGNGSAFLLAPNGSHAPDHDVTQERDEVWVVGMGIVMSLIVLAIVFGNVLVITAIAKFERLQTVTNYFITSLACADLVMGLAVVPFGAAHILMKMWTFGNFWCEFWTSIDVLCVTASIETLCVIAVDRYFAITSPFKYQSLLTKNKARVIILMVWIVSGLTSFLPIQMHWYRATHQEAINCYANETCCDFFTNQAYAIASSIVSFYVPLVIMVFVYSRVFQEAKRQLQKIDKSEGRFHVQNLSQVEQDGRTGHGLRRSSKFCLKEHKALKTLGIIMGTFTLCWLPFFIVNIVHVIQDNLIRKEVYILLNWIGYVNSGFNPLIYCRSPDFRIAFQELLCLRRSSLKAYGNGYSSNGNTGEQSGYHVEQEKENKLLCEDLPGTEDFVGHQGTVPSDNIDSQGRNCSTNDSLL

O=c1cc(-c2ccccc2)oc2c(O)c(O)ccc12 [7,8-DHF, 7,8 dihydroxyflavone]
concentration activating TrkB receptors (TrkB receptors): 250 nM

C[C@H](N)C(=O)N[C@@H](CCC(N)=O)C(=O)O [AG, Alanyl-Glutamine] (H-Ala-Gln-OH)
plasma half-life [1]: 15.6 min
log P: −2.15

CC(=O)[C@H]1CC[C@H]2[C@@H]3CC[C@H]4C[C@H](O)CC[C@]4(C)[C@H]3CC[C@]12C [Allopregnanolone, 3α-hydroxy-5α-pregnan-20-one]
concentration range potentiating rat cerebellar GABA delta subunits [2]: nanomolar range

NCCC(=O)N[C@@H](Cc1cnc[nH]1)C(=O)O [Carnosine]
half-life in human plasma [3]: < 5 min
log P: −1.19

O=C1N[C@@H](Cc2cnc[nH]2)C(=O)N2CCC[C@@H]12 [Cyclo His-Pro]
biphasic half-life, first phase [4]: 1 min
biphasic half-life, second phase [4]: 33 min
log P: −1.48

Nc1ccn([C@@H]2O[C@H](CO)[C@@H](O)[C@@H]2O)c(=O)n1 [Cytarabine]
half-life in plasma ([5]; continuous infusion): 126 min
half-life ([5]; intravenously delivered): 7 to 107 min
half-life ([5]; subcutaneously delivered): 18 min

O=C[C@H](O)[C@@H](O)[C@H](O)[C@H](O)COP(=O)(O)O [Example G6P, glucose-6-phosphate]
flux from the liposome into plasma [6]: about 5 % per hour
log P: −3.24

O=C(O)[C@H]1O[C@@H](Oc2c(-c3ccc(O)c(O)c3)oc3cc(O)cc(O)c3c2=O)[C@H](O)[C@@H](O)[C@@H]1O [Example Q3G, quercetin-3-O-glucuronide]
plasma elimination half-life [7]: 140 min
invasion of MDA-MB-231 breast cancer cells [8]: suppressed invasion
MMP-9 induction (MMP-9): suppressed
binding of [(3)H]-NA to β2-AR (β2-AR): inhibited the binding
log P: 2.10

N[C@@H](CCC(=O)NCCS(=O)(=O)O)C(=O)O [GGT, Gamma-Glutamyltaurine]
log P: −3.36

C=CCc1ccc(O)c(-c2ccc(O)c(CC=C)c2)c1 [Honokiol]
increase of GABA current (GABA(A) delta [9]): about 900%

O=C1C[C@@H](c2ccccc2)Oc2cc(O)cc(O)c21 [Pinocembrin]
EC50 (neurons): 0.1 µM

CC(C)=CCC[C@](C)(O)[C@H]1CC[C@]2(C)[C@@H]1[C@H](O)C[C@@H]1[C@@]3(C)CC[C@H](O[C@@H]4O[C@H](CO)[C@@H](O)[C@H](O)[C@H]4O[C@@H]4O[C@H](CO)[C@@H](O)[C@H](O)[C@H]4O)C(C)(C)[C@@H]3CC[C@]12C [Rg3, ginsenoside Rg3]
increase in the duration of progression free survival (lung cancer patients): 20%

C[C@]12CC[C@@H](O)C[C@H]1CC[C@@H]1[C@@H]2CC[C@]2(C)[C@@H](C(=O)CO)CC[C@@H]12 [THDOC, tetrahydrodeoxycorticosterone]
increase of GABA current (GABA(A) delta [10]): at least 700%

NC(=O)[C@@H]1CCCN1C(=O)[C@H](Cc1cnc[nH]1)NC(=O)[C@@H]1CCC(=O)N1 [TRH]
half-life [11]: 7.6 min

NCCS(=O)(=O)O [Taurine]
half-life [12]: 60 min
log P: −3.36

O=C(O)[C@H]1O[C@@H](Oc2cc3oc(-c4ccccc4)cc(=O)c3c(O)c2O)[C@H](O)[C@@H](O)[C@@H]1O [baicalin]
log P: 1.27

COc1ccc([C@@H]2CC(=O)c3c(O)cc(O)cc3O2)cc1O [hesperetin]
log P: 2.90

O=c1c(O[C@@H]2O[C@H](CO)[C@H](O)[C@H](O)[C@H]2O)c(-c2ccc(O)c(O)c2)oc2cc(O)cc(O)c12 [hyperoside]
log P: 1.75

CC1(C)C2CC=C(CO)C1C2 (centres unmarked) [myrtenol]
GABA(A) delta agonism (GABA(A) delta [13]): GABA(A) delta agonist

CC[C@H](C)[C@@H]1NC(=O)[C@H](Cc2ccc(O)cc2)NC(=O)[C@@H](N)CSSC[C@@H](C(=O)N2CCC[C@H]2C(=O)N[C@@H](CC(C)C)C(=O)NCC(N)=O)NC(=O)[C@H](CC(N)=O)NC(=O)[C@H](CCC(N)=O)NC1=O [oxytocin]
half-life [14]: ~6.8 min
crossing of the blood brain barrier [15]: failure to cross the blood brain barrier

O=C(O)[C@H]1O[C@@H](Oc2cc3oc(-c4ccc(O)cc4)cc(=O)c3c(O)c2O)[C@H](O)[C@@H](O)[C@@H]1O [scutellarin]
bioavailability ([16]; oral): less than 3%
factor of decrease of plasma concentration ([16]; over about an hour): about 10

CC1=CC(O)C2CC1C2(C)C (centres unmarked) [verbenol]
GABA(A) delta agonism (GABA(A) delta [13]): GABA(A) delta agonist

hesperetin glucuronide
EC50 (PPAR-gamma receptors): ~100 µM
log P: 0.12
